In EP2966448B1, “METHOD FOR THE PREDICTION OR PROGNOSIS OF THE RESPONSE OF A HUMAN SUBJECT SUFFERING FROM CANCER TO TREATMENT WITH AN ANTAGONIST OF THE NK1 RECEPTOR” (priority 2013, dated 2014):
Where two headings read alike, the source gives them in different places.

How the values were obtained:
[1] = system: Neuroblastoma; assay: Inhibition of primary tumor cell cultures (48 hours) vs NK1 receptor immunostaining (Example 1); type: cell-based; details: Homo sapiens, 1 micromolar, read-out: Percentage of inhibition of cell cultures
Description: (§1) Cell cultures. To obtain tumor cells from human primary tumors we used the method described in De Bari et al. (De Bari et al. 2001). Briefly, small pieces of the tumors were digested into a hyaluronidase solution (Sigma-Aldrich, USA) at a concentration of 1 mg/ml during 15 minutes at 37°C, and then they were treated with 6 mg/ml of collagenase type IV (Invitrogen) during 2 hours at 37°C. Consecutively, cells were washed, and resuspended in the DMEM culture medium with high concentration of glucose (Dulbecco's Modified Eagle's Medium, Invitrogen) supplemented with 1% of antibiotics-antimycotics (Invitrogen) and with 1% of sodium pyruvate (Invitrogen), and the cells were seeded in culture slides at a concentration of 10.000 cells per square centimeter. When cells reached confluence, the adherent cells were separated using sterile trypsin at 0,5% (Invitrogen) and they were used among passages 3 and 9. For the assays shown next, tumor cells were seeded on slides at a concentration of 25.000 cells per well. A total of 6 wells containing the tumor cells were used as survival control. […] All the cultures were kept during 48 hours and later on recollected for their analysis.
(§2) Immunohistochemistry techniques. The presence of NK1 receptors was also analyzed using immunohistochemistry techniques. Briefly, a sample of each of the cultures of the cell lines used in the present invention, was centrifuged (5 minutes at 1.500 rpm) and the pellet obtained was dehydrated using increasing concentrations of ethanol and, finally, xylol. Then, said dehydrated samples were embedded in paraffin, creating a block of cells. Such paraffin blocks were cut with a microtome at 5 microns thickness, and were placed on microscope slides adequate to perform immunohistochemistry techniques. Consecutively, they were de-paraffinized by immersing them in xylol, to be finally hydrated using a solution containing decreasing concentrations of ethanol, and finally submerged them into water. […] After this, the samples were left to cool down at room temperature for 10 minutes. The endogenous peroxidase activity was blocked with 3% peroxide of hydrogen for 30 minutes at room temperature. After washing the samples with 0.05 M of Tris buffer, they were incubated with 10% non-immune pork serum at for 30 minutes at room temperature. To analyze the expression of NK1 receptors, the cellular samples were incubated in the presence of anti-NK1 antibodies (S8305, Sigma-Aldrich) diluted 1:1000, overnight at 4°C. Afterwards, the samples were washed in Tris buffer 0.05 M at room temperature. The next step was the addition of Envision System-HRP (Dako) reagents for 30 minutes at room temperature. Then, the samples were washed again in Tris buffer 0.05 M and the immunoreactivity was visualized through light microscopy with a chromogenic solution containing 3,3'-Diaminobenzidine (DAB+; Dako, USA). To differentiate the cell nuclei, they were slightly stained with hematoxylin. As negative control, it was used samples not incubated with the primary antibody anti-NK1, which was replaced by non-immune serum. All the samples were evaluated.
(§3) To value the immunostaining in each of the cases six cuts were performed to be analyzed by the immunohistochemistry technique. In each of the six cuts, it was counted cells in 20 fields (magnification 400x) using an Olympus microscope (model CX31). In each field it was counted the total number of cells and the number of cells presenting immunostaining, calculating afterwards the percentage of cells which presented immunostaining.

[2] = system: Leukemia B; assay: as above; type: cell-based; details: Homo sapiens, 1 micromolar, read-out: Percentage of inhibition of cell cultures
Description: as §1, §2, §3

[3] = system: Myeloma; assay: as above; type: cell-based; details: Homo sapiens, 1 micromolar, read-out: Percentage of inhibition of cell cultures
Description: as §1, §2, §3

[4] = system: Gastric carcinoma (Adenocarcinoma); assay: Inhibition of primary tumor cell cultures vs Kras mutation (Example 2); type: cell-based, human; details: Gastric carcinoma (Adenocarcinoma), 100 micromolar
Description: (§4) Cell cultures. […] Briefly, small pieces of the tumors were digested into a hyaluronidase solution (Sigma-Aldrich, USA) at a concentration of 1 mg/ml during 15 minutes at 37°C, and then they were treated with 6 mg/ml of collagenase type IV (Invitrogen) during 2 hours at 37°C. Consecutively, cells were washed, and resuspended in the DMEM culture medium with high concentration of glucose (Dulbecco's Modified Eagle's Medium, Invitrogen) supplemented with 1% of antibiotics-antimycotics (Invitrogen) and with 1% of sodium pyruvate (Invitrogen), and the cells were seeded in culture slides at a concentration of 10.000 cells per square centimeter. When cells reached confluence, the adherent cells were separated using sterile trypsin at 0,5% (Invitrogen) and they were used among passages 3 and 9. For the assays shown next, tumor cells were seeded on slides at a concentration of 25.000 cells per well. A total of 6 wells containing the tumor cells were used as survival control. […] All the cultures were kept during 48 hours and later on recollected for their analysis.
(§5) In each case the presence or not of mutations in K-ras gene was determined.
(§6) To determine the existence of mutations in the K-ras gene DNA from cancer tumor cells was extracted from samples obtained from the different cancer tumor cells, using DNA extraction kits from Takara (Madison, WI, US) or Ambion (Huntingdon, Cambridgeshire, United Kingdom), following the manufacturer's instructions, and as it has been previously published (Di Fiore F, et al. 2007). Consecutively it was analyzed by sequencing the exon 2 of the KRAS gene, , by means of PCR amplification from previously extracted cancer tumor DNA, using the following sense primer (SEQ ID NO. 15): 5'-[sequence]-3' and anti-sense primer (SEQ ID NO. 16): 5'-[sequence]-3'. After the purification using the Qiagen extraction kit, the PCR products were sequenced using the Big Dye Terminator Kit V3.1 (Applied Biosystems, Foster City, CA, U.S.) and an ABI Prism 377 or 3100 DNA sequencer (Applied Biosystems). The presence of a heterozygous mutation in the KRAS gene in cancer tumor cells of the cultures was defined as the appearance of a mutant peak of a height of at least a third of the wild type. All the sequence analysis were executed at least twice in two independent PCR.
(§7) The antibody against NK1 receptor (Table 16) was used at 1/50 concentration. The percentages of inhibition are expressed in percentage of variation in relation to control ± standard deviation.

[5] = system: Pancreatic carcinoma (Adenocarcinoma); assay: as above; type: cell-based, human; details: Pancreatic carcinoma (Adenocarcinoma), 100 micromolar
Description: as §4, §5, §6, §7

[6] = system: Lung carcinoma (small cell lung carcinoma); assay: as above; type: cell-based, human; details: Lung carcinoma (small cell lung carcinoma), 100 micromolar
Description: (§8) To obtain tumor cells from human primary tumors we used the method described in De Bari et al. (De Bari et al. 2001). Briefly, small pieces of the tumors were digested into a hyaluronidase solution (Sigma-Aldrich, USA) at a concentration of 1 mg/ml during 15 minutes at 37°C, and then they were treated with 6 mg/ml of collagenase type IV (Invitrogen) during 2 hours at 37°C. Consecutively, cells were washed, and resuspended in the DMEM culture medium with high concentration of glucose (Dulbecco's Modified Eagle's Medium, Invitrogen) supplemented with 1% of antibiotics-antimycotics (Invitrogen) and with 1% of sodium pyruvate (Invitrogen), and the cells were seeded in culture slides at a concentration of 10.000 cells per square centimeter. When cells reached confluence, the adherent cells were separated using sterile trypsin at 0,5% (Invitrogen) and they were used among passages 3 and 9. For the assays shown next, tumor cells were seeded on slides at a concentration of 25.000 cells per well. A total of 6 wells containing the tumor cells were used as survival control. […] All the cultures were kept during 48 hours and later on recollected for their analysis.
as §5, §6, §7

[7] = system: Thyroid carcinoma (papillary carcinoma); assay: as above; type: cell-based, human; details: Thyroid carcinoma (papillary carcinoma), 100 micromolar
Description: as §8, §5, §6, §7

[8] = system: Urinary bladder carcinoma (transitional cell carcinoma); assay: as above; type: cell-based, human; details: Urinary bladder carcinoma (transitional cell carcinoma), 100 micromolar
Description: as §8, §5, §6, §7

[9] = system: Non Hodgkin Lymphoma B (diffuse B cell lymphoma); assay: as above; type: cell-based, human; details: Non Hodgkin Lymphoma B (diffuse B cell lymphoma), 100 micromolar
Description: as §1, §5, §6
(§9) The percentages of inhibition are expressed in percentage of variation in relation to control ± standard deviation.

[10] = system: Non Hodgkin Lymphoma T (diffuse T cell lymphoma); assay: as above; type: cell-based, human; details: Non Hodgkin Lymphoma T (diffuse T cell lymphoma), 100 micromolar
Description: as §1, §5, §6, §9

[11] = system: human primary tumor cells; assay: Inhibition of primary tumor cell cultures vs low or high expression of the truncated form of NK1 receptor (Example 5; tumor type per table line); type: cell-based; details: for Percentage of inhibition of cell cultures: 100 micromolar
Description: as §1
The presence of the truncated form of NK1 receptor was determined and then cells were cultured in presence of several antagonists of the NK1 receptor.
In each case the presence of the truncated form of the NK1 receptor was determined.
To determine the presence of the truncated form of the gene of NK1 receptor PCR technique was performed (Polymerase Chain Reaction). The extraction of RNA, amplifications of PCR, cycle conditions and quantitative analysis were executed as it has been previously described. The specific primers were the following: For the full-length NK1R receptor (NM_001058.3; forward (SEQ ID NO: 17)-: 5'-[sequence]-3 ' and reverse- (SEQ ID NO:18): 5'-[sequence]-3') and for the truncated NK1receptor (NM_015727.2; forward (SEQ ID NO: 19): 5'-[sequence]-3 and reverse (SEQ ID NO;20): 5'-[sequence]-3').
Cases were distributed in two groups: • Group A -low expression of the truncated form of NK1 receptor- for those cases wherein the expression of the truncated form of NK1 receptor was less than double the expression of the full length form of such receptor. • Group B -high expression of the truncated form of NK1 receptor- for those cases wherein the expression of the truncated form of the NK1 receptor was higher than double the expression of the full length form of such receptor.
The percentages of inhibition are expressed in percentage of variation in relation to the control ± standard deviation.

[12] = system: Endometrium carcinoma; assay: cells; details: Homo sapiens, 1 micromolar
Description: as §1, §2, §3

[13] = system: Prostate carcinoma; assay: cells; details: Homo sapiens, 1 micromolar
Description: as §1, §2, §3

[14] = NK1 receptor immunostaining Group 3 (more than 80% of the cells)
[15] = NK1 receptor immunostaining Intensity grade 1
[16] = NK1 receptor immunostaining Intensity grade 2
[17] = NK1 receptor immunostaining Intensity grade 3
[18] = NK1 receptor immunostaining Group 1 (less than 20% of the cells)
[19] = NK1 receptor immunostaining Group 2 (20-80% of the cells)
[20] = Cases with Kras non-mutated (wild type)
[21] = read-out: Percentage of inhibition of cell cultures, NK1 receptor immunostaining Group 1 (less than 20% of the cells)
[22] = read-out: Percentage of inhibition of cell cultures, NK1 receptor immunostaining Group 2 (20-80% of the cells)
[23] = read-out: Percentage of inhibition of cell cultures, NK1 receptor immunostaining Group 3 (more than 80% of the cells)
[24] = read-out: Percentage of inhibition of cell cultures, NK1 receptor immunostaining Intensity grade 1
[25] = read-out: Percentage of inhibition of cell cultures, NK1 receptor immunostaining Intensity grade 2
[26] = read-out: Percentage of inhibition of cell cultures, NK1 receptor immunostaining Intensity grade 3

SMILES: Cc1cc(F)ccc1[C@H]1CNCCN1C(=O)N(C)[C@H](C)c1cc(C(F)(F)F)cc(C(F)(F)F)c1 [Vestipitant]
- inhibition at 1 µM [1, 14]: 93 ± 3%
- inhibition at 1 µM [1, 15]: 16 ± 1%
- inhibition at 1 µM [1, 16]: 49 ± 5%
- inhibition at 1 µM [1, 17]: 93 ± 4%
- inhibition at 1 µM [2, 18]: 16 ± 5%
- inhibition at 1 µM [2, 19]: 47 ± 5%
- inhibition at 1 µM [2, 14]: 92 ± 5%
- inhibition at 1 µM [2, 15]: 17 ± 2%
- inhibition at 1 µM [2, 16]: 47 ± 3%
- inhibition at 1 µM [2, 17]: 92 ± 4%
- inhibition at 1 µM [3, 18]: 15 ± 2%
- inhibition at 1 µM [3, 19]: 45 ± 4%
- inhibition at 1 µM [3, 14]: 93 ± 6%
- inhibition at 1 µM [3, 15]: 17 ± 2%
- inhibition at 1 µM [3, 16]: 47 ± 4%
- inhibition at 1 µM [3, 17]: 93 ± 5%
- Percentage of inhibition of cell cultures ([4]; Cases with Kras mutated): 24±4 percentage
- Percentage of inhibition of cell cultures [4, 20]: 96±4 percentage
- Percentage of inhibition of cell cultures ([5]; Cases with Kras mutated): 24±4 percentage
- Percentage of inhibition of cell cultures [5, 20]: 97±4 percentage
- Percentage of inhibition of cell cultures ([6]; Cases with Kras mutated): 23±4 percentage
- Percentage of inhibition of cell cultures [6, 20]: 95±4 percentage
- Percentage of inhibition of cell cultures ([7]; Cases with Kras mutated): 26±4 percentage
- Percentage of inhibition of cell cultures [7, 20]: 94±5 percentage
- Percentage of inhibition of cell cultures ([8]; Cases with Kras mutated): 25±5 percentage
- Percentage of inhibition of cell cultures [8, 20]: 95±6 percentage
- Percentage of inhibition of cell cultures ([9]; Cases with Kras mutated): 24±4 percentage
- Percentage of inhibition of cell cultures [9, 20]: 97±6 percentage
- Percentage of inhibition of cell cultures ([10]; Cases with Kras mutated): 25±5 percentage
- Percentage of inhibition of cell cultures [10, 20]: 96±5 percentage
- Percentage of inhibition of cell cultures ([11]; Glioma (astrocytoma), Cases with high expression of the truncated form of NK1 receptor (Group B)): 94±5 percentage
- Percentage of inhibition of cell cultures ([11]; Glioma (astrocytoma), Cases with low expression of the truncated form of NK1 receptor (Group A)): 25±5 percentage
- Percentage of inhibition of cell cultures ([11]; Lung carcinoma (non small cell lung carcinoma), Cases with high expression of the truncated form of NK1 receptor (Group B)): 94±4 percentage
- Percentage of inhibition of cell cultures ([11]; Lung carcinoma (non small cell lung carcinoma), Cases with low expression of the truncated form of NK1 receptor (Group A)): 26±4 percentage
- Percentage of inhibition of cell cultures ([11]; Melanoma (Nodular Melanoma), Cases with high expression of the truncated form of NK1 receptor (Group B)): 96±4 percentage
- Percentage of inhibition of cell cultures ([11]; Melanoma (Nodular Melanoma), Cases with low expression of the truncated form of NK1 receptor (Group A)): 24±5 percentage
- Percentage of inhibition of cell cultures ([11]; Non Hodgkin Lymphoma B (diffuse B cell lymphoma), Cases with high expression of the truncated form of NK1 receptor (Group B)): 98±5 percentage
- Percentage of inhibition of cell cultures ([11]; Non Hodgkin Lymphoma B (diffuse B cell lymphoma), Cases with low expression of the truncated form of NK1 receptor (Group A)): 23±5 percentage
- Percentage of inhibition of cell cultures ([11]; Non Hodgkin Lymphoma T (diffuse T cell lymphoma), Cases with high expression of the truncated form of NK1 receptor (Group B)): 98±4 percentage
- Percentage of inhibition of cell cultures ([11]; Non Hodgkin Lymphoma T (diffuse T cell lymphoma), Cases with low expression of the truncated form of NK1 receptor (Group A)): 23±4 percentage
- Percentage of inhibition of cell cultures ([11]; Prostate carcinoma, Cases with high expression of the truncated form of NK1 receptor (Group B)): 95±6 percentage
- Percentage of inhibition of cell cultures ([11]; Prostate carcinoma, Cases with low expression of the truncated form of NK1 receptor (Group A)): 24±6 percentage
- Percentage of inhibition of cell cultures ([11]; Thyroid carcinoma (follicular carcinoma), Cases with high expression of the truncated form of NK1 receptor (Group B)): 95±5 percentage
- Percentage of inhibition of cell cultures ([11]; Thyroid carcinoma (follicular carcinoma), Cases with low expression of the truncated form of NK1 receptor (Group A)): 27±3 percentage
- Percentage of inhibition of cell cultures ([11]; Thyroid carcinoma (papillary carcinoma), Cases with high expression of the truncated form of NK1 receptor (Group B)): 96±6 percentage
- Percentage of inhibition of cell cultures ([11]; Thyroid carcinoma (papillary carcinoma), Cases with low expression of the truncated form of NK1 receptor (Group A)): 26±5 percentage
- Percentage of inhibition of cell cultures ([11]; Undifferentiated Pleomorphic Sarcoma (malignant fibrous histiocytoma grade 3), Cases with high expression of the truncated form of NK1 receptor (Group B)): 95±3 percentage
- Percentage of inhibition of cell cultures ([11]; Undifferentiated Pleomorphic Sarcoma (malignant fibrous histiocytoma grade 3), Cases with low expression of the truncated form of NK1 receptor (Group A)): 26±4 percentage
- Percentage of inhibition of cell cultures ([11]; Urinary bladder carcinoma (transitional cell carcinoma), Cases with high expression of the truncated form of NK1 receptor (Group B)): 94±5 percentage
- Percentage of inhibition of cell cultures ([11]; Urinary bladder carcinoma (transitional cell carcinoma), Cases with low expression of the truncated form of NK1 receptor (Group A)): 25±4 percentage
- inhibition of cell proliferation ([11]; cancer cell cultures that show more expression of the truncated form of NK1 receptor, compared, non-peptidic antagonists 100 micromolar, antibody 1/50): higher inhibition
- inhibition at 1 µM [12, 21]: 15 ± 3%
- inhibition at 1 µM [12, 22]: 44 ± 3%
- inhibition at 1 µM [12, 23]: 93 ± 6%
- inhibition at 1 µM [12, 24]: 18 ± 2%
- inhibition at 1 µM [12, 25]: 47 ± 4%
- inhibition at 1 µM [12, 26]: 93 ± 5%
- inhibition at 1 µM [13, 21]: 17 ± 4%
- inhibition at 1 µM [13, 22]: 46 ± 3%
- inhibition at 1 µM [13, 23]: 92 ± 5%
- inhibition at 1 µM [13, 24]: 18 ± 4%
- inhibition at 1 µM [13, 25]: 47 ± 4%
- inhibition at 1 µM [13, 26]: 92 ± 4%
